Entries after “also recorded” stand apart in the source; their conditions may differ.

Format in all cases: cell-based, human
Series [1] relates to HMT3522 T4-2 cells. Briefly: Percent cell death in 2D monolayer, 3D rBM and reverted cultures (active caspase 3). The settings on record: for death sensitivity of cells cultured in 3D rBM: 3D rBM disorganized aggregates vs 2D monolayer; for death sensitivity of cells cultured in 3D rBM / death sensitivity of structurally reverted spheroids: TRAIL 1.0 μg/mL, Paclitaxel 20 μM; for death sensitivity of structurally reverted spheroids: reverted with tyrphostin AG 1478 in 3D rBM. From the text:
(§1) The oligonucleotides specifying the small hairpin RNAs (shRNAs) were subcloned from pSilencer-H1 into pLZRS-MFG-CMV-Neo-U6, a recombinant self-inactivating retroviral vector constructed from the backbone of an MFG provirus (Proc. Natl. Acad. Sci. USA 85:6460-6464 (1988); Proc. Natl. Acad. Sci. USA 90:3539-3543 (1993)), which directs the expression of shRNA under the control of the U6 promoter. Amphotropic retrovirus was produced in Phoenix ampho cells (provided by Professor G. Nolan, Stanford Medical Center) with packaging vectors pCgp and pVSVG to boost viral titer. S1 cells or T4-2 cells, maintained in monolayer cultures, were then spin infected with retrovirus carrying the various RNAi constructs and infected cell populations were selected using 300 μg/ml G418 (Invitrogen).
Non-neoplastic HMT3522 S1 breast epithelial cells or neoplastic HMT3522 T4-2 cells were embedded (8.5×10^5/ml) within reconstituted basement membrane (rBM) gel (Matrigcl, BD Biosciences) in chamber slides (Lab-Tek chamber slides, Nunc) according to the procedures described in U.S. Pat. No. 6,123,941 and Nat. Method. 4:359-365 (2007). […] Phenotypic reversion of HMT3522 T4-2 cells in three dimensional rBM cultures was performed using an epidermal growth factor receptor (EGFR) specific tyrosine kinase inhibitor tyrphostin AG 1478 (100 nM) (Calbiochem), as previously described (Proc. Natl. Acad. Sci. USA 95:14821-14826 (1998))
Apoptotic cell death of the breast epithelial cells cultured in three dimensional rBM was initiated by treatment with recombinant, purified human tumor necrosis factor-related apoptosis-inducing ligand (TRAIL) peptides (BIOMOL) or Paclitaxel (Sigma-Aldrich) as described (Cancer Cell 2:205-216 (2002)). DNA damage-induced cell death was initiated by ionizing radiation (IR) using a Mark I Cesium 137 irradiator (JL Shepherd & Associates).
Percent cell death induced by TRAIL or Paclitaxel was quantified using detection of active caspase 3 (Cell Signaling) by indirect immunofluorescence as described (J. Cell Biol. 163:1397-1407 (2003)). Percent cell death induced by IR was quantified using Live/Dead Viability/Cytotoxicity Assay (Molecular Probes). For both methods, cells were counterstained with 4′,6-diamidino-2-phenylindole (DAPI) to label cell nuclei present at different focal planes in the 3D architectures. Percent death was calculated as cells positive for ethidium bromide or active caspase 3 expressed as a percentage of the total number of cells scored by the nuclear staining.
Percent cell death induced by TRAIL was quantified using detection of active caspasc 3 as described in Example 4.

In the next series the test system is N-CoR2. Briefly: Immunoblot of N-CoR2 protein abundance in 2D, 3D and reverted cultures. The settings on record: T4-2 aggregates reverted into organized spheroids by EGFR inhibition, vs disorganized 3D aggregates. On the procedure: For immunoblot analysis, cell colonies (S1 acini or T4-2 cellular aggregates) in 3D rBM were isolated using ice-cold PBS/EDTA. Total cell lysates from monolayered cells or isolated colonies were prepared in Laemmli lysing buffer containing protease inhibitors and immunoblot analysis was performed as described (Exp. Cell Res. 298:122-132 (2004)).
Background: A western blot detects proteins with antibodies after separation by electrophoresis.

The subject of series [2] is HMT3522 T4-2 cells. Nature of the series: Phenotypic reversion in three dimensional rBM cultures. The note with it: tyrphostin AG 1478 100 nM. From the text: Non-neoplastic HMT3522 S1 breast epithelial cells or neoplastic HMT3522 T4-2 cells were embedded (8.5×10^5/ml) within reconstituted basement membrane (rBM) gel (Matrigcl, BD Biosciences) in chamber slides (Lab-Tek chamber slides, Nunc) according to the procedures described in U.S. Pat. No. 6,123,941 and Nat. Method. 4:359-365 (2007). The three dimensional cultures were maintained for 12 days before induction of cell death. Phenotypic reversion of HMT3522 T4-2 cells in three dimensional rBM cultures was performed using an epidermal growth factor receptor (EGFR) specific tyrosine kinase inhibitor tyrphostin AG 1478 (100 nM) (Calbiochem), as previously described (Proc. Natl. Acad. Sci. USA 95:14821-14826 (1998))

The test system of series [3] is HMT3522 S1 cells. Briefly: Cell growth rates on culture plastics and 3D acinar morphogenesis in rBM. The note with it: stable RNAi vs control shRNA. On the procedure:
For the comparison of cell growth rates, cells were seeded on culture plastics and the cell number was determined at indicated time points. Population doublings were calculated as In (cell number at day n/cell number at day 0)/ln 2. Data were shown as mean±SEM of triplicate experiments.
To illustrate the basal surfaces and the intercellular junctions of the polarized acinar structures, the cultures were directly fixed with 2% paraformaldehyde and then incubated with primary antibodies toward β4-integrin and β-catenin, followed by FITC-(green) or Texas red-(red) conjugated secondary antibodies, respectively. Phase contrast images or immunofluorescence images were taken using a scanning confocal laser (model 2000-MP, Bio-Rad Laboratories) attached to a fluorescence microscope (model Eclipse TE-300, Nikon).

Series [4] relates to HMT3522 S1 cells. Nature of the series: Percent cell death of 3D rBM acini (active caspase 3; Live/Dead assay for IR). The note with it: stable N-CoR2 downregulation vs control cells, range of drug concentrations or IR doses.
Excerpt: as §1, with “(Invitrogen). […]” for “(Invitrogen).”
Percent cell death induced by TRAIL or Paclitaxel was quantified using detection of active caspase 3 (Cell Signaling) by indirect immunofluorescence as described (J. Cell Biol. 163:1397-1407 (2003)). Percent cell death induced by IR was quantified using Live/Dead Viability/Cytotoxicity Assay (Molecular Probes). […] Percent death was calculated as cells positive for ethidium bromide or active caspase 3 expressed as a percentage of the total number of cells scored by the nuclear staining.

On to `CC(=O)O[C@H]1C(=O)[C@@]2(C)[C@H]([C@H](OC(=O)c3ccccc3)[C@]3(O)C[C@H](OC(=O)[C@H](O)[C@@H](NC(=O)c4ccccc4)c4ccccc4)C(C)=C1C3(C)C)[C@]1(OC(C)=O)CO[C@@H]1C[C@@H]2O` [Paclitaxel, reference compound], for which, in the series with HMT3522 T4-2 cells [1], the “death sensitivity of cells cultured in 3D rBM” value is on record as “decreased sensitivity” and the “death sensitivity of structurally reverted spheroids” value is given as “further decrease in the sensitivity”.

For `COc1cc2ncnc(Nc3cccc(Cl)c3)c2cc1OC` [tyrphostin AG 1478], the “protein abundance of N-CoR2” value with N-CoR2 is given as “further increase in the protein abundance of N-CoR2”. Besides, the “phenotypic reversion of cellular aggregates in 3D rBM” value in the series with HMT3522 T4-2 cells [2] is reported as “phenotypic reversion of the cellular aggregates into organized spheroid-like structures”.

Regarding “HDAC3 shRNA: retrovirally expressed small hairpin RNA, siRNA sequence 5′-AAGATGCTGAACCATGCACCT-3′ (SEQ ID NO:2) for HDAC3”, the “sensitivity to the TRAIL treatment of N-CoR2-overexpressed cells” value in the series on HMT3522 T4-2 cells [1] (HDAC3 simultaneously downregulated by retrovirus-mediated RNAi) is given as “restored to an extent comparable to that of vehicle-treated cells”.

Turning to “N-CoR2 (K449A): mutant N-CoR2 with lysine 449 mutated to alanine; binds HDAC3 but does not activate it”, in the series with HMT3522 T4-2 cells [1] (T4-2 cells in rBM gel 5 days, vs vector control cells), the “sensitivity to death induction by TRAIL of cells transduced with the mutant” value is reported as “hypersensitive to death induction to an extent even greater than that of the vector control cells”.

“N-CoR2 shRNA: retrovirally expressed small hairpin RNA, siRNA sequence 5′-AAGGGTATCATCACCGCTGTG-3′ (SEQ ID NO:1) for N-CoR2”: the “growth on culture plastics, integrity and polarization of acini in 3D rBM” value in the series on HMT3522 S1 cells [3] is listed as “does not significantly alter”. In addition, the “increased resistance of reverted spheroidal structures to death stimuli (TRAIL, Paclitaxel)” value in the series on HMT3522 T4-2 cells [1] (stable N-CoR2 downregulation, TRAIL 1.0 μg/mL or Paclitaxel 20 μM) is on record as “completely reversed”. Further, the “sensitivity of S1 acini to death stimuli (TRAIL, Paclitaxel, IR)” value in the series with HMT3522 S1 cells [4] was “much more sensitive”.

B1: TRAIL: recombinant, purified human tumor necrosis factor-related apoptosis-inducing ligand (TRAIL) peptides (BIOMOL) (protein, UniProt P50591 1-281, looked up)
Tumor necrosis factor ligand …: MAMMEVQGGPSLGQTCVLIVIFTVLLQSLCVAVTYVYFTNELKQMQDKYSKSGIACFLKEDDSYWDPNDEESMNSPCWQVKWQLRQLVRKMILRTSEETISTVQEKQQNISPLVRERGPQRVAAHITGTRGRSNTLSSPNSKNEKALGRKINSWESSRSGHSFLSNLHLRNGELVIHEKGFYYIYSQTYFRFQEEIKENTKNDKQMVQYIYKYTSYPDPILLMKSARNSCWSKDAEYGLYSIYQGGIFELKENDRIFVSVTNEHLIDMDHEASFFGAFLVG
On to B1, for which, in the series on HMT3522 T4-2 cells [1], the “death sensitivity of cells cultured in 3D rBM” value is listed as “decreased sensitivity” and the “death sensitivity of structurally reverted spheroids” value is listed as “further decrease in the sensitivity”. Moreover, the “death sensitivity of cells with stable overexpression of wild-type N-CoR2” value in the series with HMT3522 T4-2 cells [1] (vs vector control cells, 3D rBM) is recorded as “markedly resistant; also recorded: less sensitive”.

Values taken from patent publication US8257928B2, “Methods for predicting and treating tumors resistant to drug, immunotherapy and radiation” (The Regents of the University of California, priority 2008, dated 2012).
